Results reported in patent US12606566B2, “Substituted cyclopenta[4,5]pyrrolo[1,2-a]pyrazines as bruton's tyrosine kinase inhibitors” (Shanghai Synergy Pharmaceutical Sciences Co., Ltd., priority 2020, dated 2026).

What follows are compounds tested against BTK kinase (Homo sapiens, UniProt Q06187) (assay: BTK kinase inhibitory activity, mobility shift method). Conditions: compound co-incubated with the enzyme for 30 minutes.
BTK kinase, sequence (Q06187 whole entry): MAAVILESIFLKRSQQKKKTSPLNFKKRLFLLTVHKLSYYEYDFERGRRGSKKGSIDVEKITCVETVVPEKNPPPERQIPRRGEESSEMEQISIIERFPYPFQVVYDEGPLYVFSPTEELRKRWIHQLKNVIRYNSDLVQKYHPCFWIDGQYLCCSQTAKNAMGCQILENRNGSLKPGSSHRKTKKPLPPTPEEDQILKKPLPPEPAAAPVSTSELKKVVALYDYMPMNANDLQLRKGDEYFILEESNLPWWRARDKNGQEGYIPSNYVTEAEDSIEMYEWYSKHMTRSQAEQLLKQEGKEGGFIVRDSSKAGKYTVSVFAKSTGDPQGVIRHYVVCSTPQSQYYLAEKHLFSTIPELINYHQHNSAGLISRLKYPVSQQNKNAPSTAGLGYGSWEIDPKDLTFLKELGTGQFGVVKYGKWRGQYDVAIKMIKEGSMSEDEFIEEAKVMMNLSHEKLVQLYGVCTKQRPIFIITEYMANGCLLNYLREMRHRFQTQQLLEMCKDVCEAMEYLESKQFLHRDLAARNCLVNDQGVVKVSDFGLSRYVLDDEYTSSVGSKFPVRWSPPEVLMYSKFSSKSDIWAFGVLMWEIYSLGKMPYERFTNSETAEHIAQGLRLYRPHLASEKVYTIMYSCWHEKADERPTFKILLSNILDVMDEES
Format: biochemical
Protocol: The BTK kinase inhibitory activity of the compound was determined using a mobility shift method with the reaction system (kinase solution, ATP, kinase substrate2). The compound was co-incubated with the enzyme for 30 minutes, and then the conversion rate was read using the Caliper EZ reader. The compound inhibition rate was determined using the calculation formula and the data was fitted using Graphpad to derive the IC50 value for the compounds of this application.
`C[C@H]1CN(C2COC2)CCN1c1ccc(Nc2cc(-c3ccnc(N4CCn5c6c(c(C#N)c5C4=O)CC(C)(C)C6)c3CO)cn(C)c2=O)nc1` [Example H18, (S)-2-(3′-(hydroxymethyl)-1-methyl-5-((5-(2-methyl-4-(oxetan-3-yl)piperazin-1-yl)pyridin-2-yl)amino)-6-oxo-1,6-dihydro-[3,4′-bipyridin]-2′-yl)-7,7-dimethyl-1-oxo-1,3,4,6,7,8-hexahydro-2H-cyclopenta[4,5]pyrrolo[1,2-a]pyrazine-9-carbonitrile] showed an IC50 of 0.65 nM.
In the case of `C[C@H]1CN(C2COC2)CCN1c1ccc(Nc2cc(-c3ccnc(N4CCn5c6c(c(C(F)(F)F)c5C4=O)CC(C)(C)C6)c3CO)cn(C)c2=O)nc1` [Example H19, (S)-2-(3′-(hydroxymethyl)-1-methyl-5-((5-(2-methyl-4-(oxetan-3-yl)piperazin-1-yl)pyridin-2-yl)amino)-6-oxo-1,6-dihydro-[3,4′-bipyridin]-2′-yl)-7,7-dimethyl-9-(trifluoromethyl)-3,4,7,8-hexahydro-2H-cyclopenta[4,5]pyrrolo[1,2-a]pyrazine-1(6H)-one], the IC50 is reported as 0.52 nM.
With `CCOc1c2c(n3c1C(=O)N(c1nccc(-c4cc(Nc5ccc(N6CCN(C7COC7)C[C@@H]6C)cn5)c(=O)n(C)c4)c1CO)CC3)CC(C)(C)C2` [Example H20, (S)-9-ethoxy-2-(3′-(hydroxymethyl)-1-methyl-5-((5-(2-methyl-4-(oxetan-3-yl)piperazin-1-yl)pyridin-2-yl)amino)-6-oxo-1,6-dihydro-[3,4′-bipyridyl]-2′-yl)-7,7-dimethyl-3,4,7,8-tetrahydro-2H-cyclopenta[4,5]pyrrolo[1,2-a]pyrazin-1(6H)-one] the IC50 was 0.55 nM.
`C[C@H]1CN(C2COC2)CCN1c1ccc(Nc2cc(-c3ccnc(N4CCn5c6c(c(OC7CC7)c5C4=O)CC(C)(C)C6)c3CO)cn(C)c2=O)nc1` [Example H23, (S)-9-cyclopropoxy-2-(3′-(hydroxymethyl)-1-methyl-5-((5-(2-methyl-4-(oxetan-3-yl)piperazin-1-yl)pyridin-2-yl)amino)-6-oxo-1,6-dihydro-[3,4′-bipyridin]-2′-yl)-7,7-dimethyl-3,4,7,8-tetrahydro-2H-cyclopenta[4,5]pyrrolo[1,2-a]pyrazin-1(6H)-one] was tested, and the IC50 was 0.51 nM.
With `CC(C)Oc1c2c(n3c1C(=O)N(c1nccc(-c4cc(Nc5ccc(N6CCN(C7COC7)C[C@@H]6C)cn5)c(=O)n(C)c4)c1CO)CC3)CC(C)(C)C2` [Example H24, (S)-2-(3′-(hydroxymethyl)-1-methyl-5-((5-(2-methyl-4-(oxetan-3-yl)piperazin-1-yl)pyridin-2-yl)amino)-6-oxo-1,6-dihydro-[3,4′-bipyridin]-2′-yl)-9-isopropoxy-7,7-dimethyl-3,4,7,8-tetrahydro-2H-cyclopenta[4,5]pyrrolo[1,2-a]pyrazin-1(6H)-one] the IC50 was 0.65 nM.
`C[C@H]1CN(C2COC2)CCN1c1ccc(Nc2cc(-c3ccnc(N4CCn5c6c(c(N)c5C4=O)CC(C)(C)C6)c3CO)cn(C)c2=O)nc1` [Example H25, (S)-9-amino-2-(3′-(hydroxymethyl)-1-methyl-5-((5-(2-methyl-4-(oxetan-3-yl)piperazin-1-yl)pyridin-2-yl)amino)-6-oxo-1,6-dihydro-[3,4′-bipyridin]-2′-yl)-7,7-dimethyl-3,4,7,8-tetrahydro-2H-cyclopenta[4,5]pyrrolo[1,2-a]pyrazin-1(6H)-one] was tested, and the IC50 was 0.44 nM.
`CNc1c2c(n3c1C(=O)N(c1nccc(-c4cc(Nc5ccc(N6CCN(C7COC7)C[C@@H]6C)cn5)c(=O)n(C)c4)c1CO)CC3)CC(C)(C)C2` [Example H26, (S)-2-(3′-(hydroxymethyl)-1-methyl-5-((5-(2-methyl-4-(oxetan-3-yl)piperazin-1-yl)pyridin-2-yl)amino)-6-oxo-1,6-dihydro-[3,4′-bipyridin]-2′-yl)-9-methylamino-7,7-dimethyl-3,4,7,8-tetrahydro-2H-cyclopenta[4,5]pyrrolo[1,2-a]pyrazin-1(6H)-one] was tested, and the IC50 was 0.46 nM.
